Measurements: ChEMBL document CHEMBL5724914, “Linking interpersonal differences in gut microbiota composition and drug biotransformation activity” (2024)

Key:
[1] = The drug is tested on Z-030 corresponding to mouse gut metagenome with ENA study accession number: PRJEB37062 and ENA sample accession number: ERS12561829 for biotransformation under anaerobic condition. The drug concentrations were measured over 9 timepoints collected between 0 and 24 hours of incubation by liquid-chromatography-coupled mass spectrometry (LC–MS); conditions: 2 µM
[2] = The drug is tested on Z-012 corresponding to metagenome with ENA study accession number: PRJEB37062 and ENA sample accession number: ERS12561812 for biotransformation under anaerobic condition. The drug concentrations were measured over 9 timepoints collected between 0 and 24 hours of incubation by liquid-chromatography-coupled mass spectrometry (LC–MS); conditions: 2 µM
[3] = The drug is tested on Z-004 corresponding to metagenome with ENA study accession number: PRJEB37062 and ENA sample accession number: ERS12561804 for biotransformation under anaerobic condition. The drug concentrations were measured over 9 timepoints collected between 0 and 24 hours of incubation by liquid-chromatography-coupled mass spectrometry (LC–MS); conditions: 2 µM
[4] = The drug is tested on WLS-090 corresponding to human gut metagenome with ENA study accession number: PRJEB37062 and ENA sample accession number: ERS12561753 for biotransformation under anaerobic condition. The drug concentrations were measured over 9 timepoints collected between 0 and 24 hours of incubation by liquid-chromatography-coupled mass spectrometry (LC–MS); conditions: 2 µM
[5] = The drug is tested on WLS-027 corresponding to human gut metagenome with ENA study accession number: PRJEB37062 and ENA sample accession number: ERS12561744 for biotransformation under anaerobic condition. The drug concentrations were measured over 9 timepoints collected between 0 and 24 hours of incubation by liquid-chromatography-coupled mass spectrometry (LC–MS); conditions: 2 µM
[6] = human gut metagenome, 24 h, 2 µM
[7] = human gut metagenome, 24 h, 2 µM; remark: listed apart in the source
[8] = human gut metagenome, 24 h, 2 µM; remark: listed apart in the source
[9] = human gut metagenome, 24 h, 2 µM; remark: listed apart in the source
Also: call rule not given here.

| Bacterial Biotransformation [1] | Bacterial Biotransformation [2] | Bacterial Biotransformation [3] | Bacterial Biotransformation [4] | Bacterial Biotransformation [5] | Bacterial Biotransformation [6] | Bacterial Biotransformation [7] | Bacterial Biotransformation [8] | Bacterial Biotransformation [9] | Structure (SMILES) |
| --- | --- | --- | --- | --- | --- | --- | --- | --- | --- |
| Compound NOT metabolized | Compound NOT metabolized | Compound NOT metabolized | Compound NOT metabolized | Compound NOT metabolized | Compound NOT metabolized | Compound NOT metabolized | Compound NOT metabolized | Compound NOT metabolized | CN(C)CCc1c[nH]c2ccc(Cn3cncn3)cc12.O=C(O)c1ccccc1 [RIZATRIPTAN BENZOATE] |
| Compound NOT metabolized | Compound NOT metabolized | Compound NOT metabolized | Compound metabolized | Compound NOT metabolized | Compound NOT metabolized | Compound NOT metabolized | Compound NOT metabolized | Compound metabolized | CCCc1nn(C)c2c(=O)[nH]c(-c3cc(S(=O)(=O)N4CCN(C)CC4)ccc3OCC)nc12.O=C(O)CC(O)(CC(=O)O)C(=O)O [SILDENAFIL CITRATE] |
| Compound NOT metabolized | Compound NOT metabolized | Compound NOT metabolized | Compound NOT metabolized | Compound NOT metabolized | Compound NOT metabolized | Compound NOT metabolized | Compound NOT metabolized | Compound NOT metabolized | CN1C(C(=O)Nc2ccccn2)=C(O)c2sccc2S1(=O)=O [TENOXICAM] |
| Compound NOT metabolized | Compound NOT metabolized | Compound metabolized | Compound metabolized | Compound metabolized | Compound NOT metabolized | Compound metabolized | Compound NOT metabolized | Compound metabolized | O=c1n(CCCN2CCN(c3cccc(Cl)c3)CC2)nc2ccccn12 [TRAZODONE] |
| Compound NOT metabolized | Compound NOT metabolized | Compound metabolized | Compound metabolized | Compound NOT metabolized | Compound NOT metabolized | Compound metabolized | Compound NOT metabolized | Compound NOT metabolized | OC(CCN1CCCCC1)(c1ccccc1)C1CCCCC1 (stereo unspecified) [TRIHEXYPHENIDYL] |
| Compound metabolized | Compound metabolized | Compound metabolized | Compound NOT metabolized | Compound NOT metabolized | Compound NOT metabolized | Compound NOT metabolized | Compound NOT metabolized | Compound metabolized | Cc1cn([C@H]2C[C@H](N=[N+]=[N-])[C@@H](CO)O2)c(=O)[nH]c1=O [ZIDOVUDINE] |

Further lines, the compound ahead of its results:

| Structure (SMILES) | Bacterial Biotransformation [1] | Bacterial Biotransformation [2] | Bacterial Biotransformation [3] | Bacterial Biotransformation [4] | Bacterial Biotransformation [5] | Bacterial Biotransformation [6] | Bacterial Biotransformation [7] | Bacterial Biotransformation [8] | Bacterial Biotransformation [9] |
| --- | --- | --- | --- | --- | --- | --- | --- | --- | --- |
| O=C(O)CCc1nc(-c2ccccc2)c(-c2ccccc2)o1 [OXAPROZIN] | Compound NOT metabolized | Compound NOT metabolized | Compound NOT metabolized | Compound metabolized | Compound metabolized | Compound metabolized | Compound metabolized | Compound NOT metabolized | Compound metabolized |
| CC(C)(C)NC[C@H](O)COc1ccccc1C1CCCC1.CC(C)(C)NC[C@H](O)COc1ccccc1C1CCCC1.O=S(=O)(O)O [PENBUTOLOL SULFATE] | Compound NOT metabolized | Compound NOT metabolized | Compound metabolized | Compound metabolized | Compound metabolized | Compound metabolized | Compound metabolized | Compound metabolized | Compound metabolized |
| CCOc1ccc(NC(C)=O)cc1 [PHENACETIN] | Compound NOT metabolized | Compound NOT metabolized | Compound NOT metabolized | Compound NOT metabolized | Compound NOT metabolized | Compound NOT metabolized | Compound NOT metabolized | Compound NOT metabolized | Compound NOT metabolized |
| Nc1ccc(/N=N/c2ccccc2)c(N)n1 [PHENAZOPYRIDINE] | Compound metabolized | Compound metabolized | Compound metabolized | Compound metabolized | Compound metabolized | Compound metabolized | Compound metabolized | Compound metabolized | Compound metabolized |
| CC(C(=O)O)c1ccc2c(c1)Cc1cccnc1O2 (stereo unspecified) [PRANOPROFEN] | Compound metabolized | Compound metabolized | Compound metabolized | Compound metabolized | Compound metabolized | Compound metabolized | Compound metabolized | Compound metabolized | Compound metabolized |
| CCc1nc(N)nc(N)c1-c1ccc(Cl)cc1 [PYRIMETHAMINE] | Compound NOT metabolized | Compound NOT metabolized | Compound NOT metabolized | Compound metabolized | Compound NOT metabolized | Compound NOT metabolized | Compound metabolized | Compound NOT metabolized | Compound metabolized |
| COc1ccccc1OCC(O)CN1CCN(CC(=O)Nc2c(C)cccc2C)CC1 (stereo unspecified) [RANOLAZINE] | Compound NOT metabolized | Compound NOT metabolized | Compound NOT metabolized | Compound NOT metabolized | Compound NOT metabolized | Compound NOT metabolized | Compound NOT metabolized | Compound NOT metabolized | Compound NOT metabolized |
| Cc1nc2n(c(=O)c1CCN1CCC(c3noc4cc(F)ccc34)CC1)CCCC2 [RISPERIDONE] | Compound NOT metabolized | Compound metabolized | Compound metabolized | Compound metabolized | Compound metabolized | Compound NOT metabolized | Compound metabolized | Compound metabolized | Compound NOT metabolized |
